Toxic doses and inconclusive results are not listed. Cut-off read from the data, not from the text of the source: active = T/C of 150% or more; inactive = T/C below 125%.
Test system: L1210 leukemia ip in BDF1 mice, survival T/C
Test: NCI In Vivo Anticancer Drug Screen. Data for tumor model L1210 Leukemia (intraperitoneal) in B6D2F1 (BDF1) mice
Conditions: endpoint: mean survival time, higher = longer survival
In short: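 Value reflects the ratio of survival in compound-treated mice to survival in vehicle-treated controls, with both groups carrying the same transplanted tumor.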

[1] = dose: 50.0 mg/kg/injection, schedule: Q01DX009 (ip), vehicle: Klucel (hydroxypropylcellulose) (HPC)
[2] = dose: 100.0 mg/kg/injection, schedule: Q01DX009 (ip), vehicle: Klucel (hydroxypropylcellulose) (HPC)
[3] = dose: 200.0 mg/kg/injection, schedule: Q01DX009 (ip), vehicle: Klucel (hydroxypropylcellulose) (HPC)
[4] = dose: 100.0 mg/kg/injection, schedule: Q04DX002 (ip), vehicle: Klucel (hydroxypropylcellulose) (HPC)
[5] = dose: 200.0 mg/kg/injection, schedule: Q04DX002 (ip), vehicle: Klucel (hydroxypropylcellulose) (HPC)
[6] = dose: 400.0 mg/kg/injection, schedule: Q04DX002 (ip), vehicle: Klucel (hydroxypropylcellulose) (HPC)
[7] = dose: 25.0 mg/kg/injection, schedule: Q01DX009 (ip), vehicle: Klucel (hydroxypropylcellulose) (HPC)
[8] = dose: 100.0 mg/kg/injection, schedule: Q04DX003 (ip), vehicle: Klucel (hydroxypropylcellulose) (HPC)
[9] = dose: 100.0 mg/kg/injection, schedule: Q04DX003 (ip), vehicle: saline with Tween-80
[10] = dose: 200.0 mg/kg/injection, schedule: Q04DX003 (ip), vehicle: saline with Tween-80
[11] = dose: 100.0 mg/kg/injection, schedule: Q04DX003 (ip), vehicle: saline
[12] = dose: 200.0 mg/kg/injection, schedule: Q04DX003 (ip), vehicle: saline
[13] = dose: 25.0 mg/kg/injection, schedule: Q04DX003 (ip), vehicle: saline
[14] = dose: 100.0 mg/kg/injection, schedule: Q01DX001 (ip), vehicle: saline
[15] = dose: 200.0 mg/kg/injection, schedule: Q01DX001 (ip), vehicle: saline
[16] = dose: 400.0 mg/kg/injection, schedule: Q01DX001 (ip), vehicle: saline

Measured: T/C

Nc1nc2ccccc2c(Cl)c1Cl
inactive: [1] 86 % of control | [2] 91 % of control | [3] 91 % of control

NC(CC(=O)O)C(=O)OCc1ccccc1 (configuration not stated)
inactive: [2] 95 % of control | [4] 92 % of control | [3] 95 % of control | [5] 103 % of control | [6] 95 % of control

Cc1ccc(NC(=O)NCCCO)cc1
inactive: dose: 50.0 mg/kg/injection, schedule: Q01DX001 (ip), vehicle: carboxymethylcellulose (CMC) 101 % of control | dose: 100.0 mg/kg/injection, schedule: Q01DX001 (ip), vehicle: carboxymethylcellulose (CMC) 101 % of control | dose: 200.0 mg/kg/injection, schedule: Q01DX001 (ip), vehicle: carboxymethylcellulose (CMC) 106 % of control | dose: 400.0 mg/kg/injection, schedule: Q01DX001 (ip), vehicle: carboxymethylcellulose (CMC) 104 % of control

CCN(CC)Cc1cc(Nc2ncnc3[nH]c(C)c(C)c23)ccc1O
inactive: dose: 12.5 mg/kg/injection, schedule: Q04DX002 (ip), vehicle: saline with Tween-80 98 % of control | dose: 25.0 mg/kg/injection, schedule: Q04DX002 (ip), vehicle: saline with Tween-80 94 % of control | dose: 50.0 mg/kg/injection, schedule: Q04DX002 (ip), vehicle: saline with Tween-80 88 % of control

COc1ccc2c3c1OC1C4(CCC5C(C2)N(CC2CC2)CCC351)OCCO4 (configuration not stated)
inactive: dose: 12.5 mg/kg/injection, schedule: Q04DX003 (ip), vehicle: Klucel (hydroxypropylcellulose) (HPC) 101 % of control | [7] 95 % of control | dose: 25.0 mg/kg/injection, schedule: Q04DX003 (ip), vehicle: Klucel (hydroxypropylcellulose) (HPC) 103 % of control | [1] 94 % of control | dose: 50.0 mg/kg/injection, schedule: Q04DX003 (ip), vehicle: Klucel (hydroxypropylcellulose) (HPC) 101 % of control | [2] 91 % of control | [8] 101 % of control

Cc1cc(=O)[nH]c2ccccc12
inactive: [9] 91 % of control | [10] 95 % of control

CSc1nnc(-c2ccncc2)s1
inactive: [11] 104 % of control | [12] 107 % of control

C(=N\N=C\c1cccs1)/c1cccs1
inactive: [9] 98 % of control | [10] 98 % of control | dose: 400.0 mg/kg/injection, schedule: Q04DX003 (ip), vehicle: saline with Tween-80 95 % of control

O=C1OC(=O)C(Br)C1Br (configuration not stated)
inactive: dose: 1.56 mg/kg/injection, schedule: Q04DX003 (ip), vehicle: saline 106 % of control | dose: 3.12 mg/kg/injection, schedule: Q04DX003 (ip), vehicle: saline 106 % of control | dose: 6.25 mg/kg/injection, schedule: Q04DX003 (ip), vehicle: saline 95 % of control | dose: 12.5 mg/kg/injection, schedule: Q04DX003 (ip), vehicle: saline 108 % of control | [13] 87 % of control

O=c1[nH]cnc2nn(C3OC(CO)C(O)C3O)cc12 (configuration not stated)
inactive: dose: 100.0 mg/kg/injection, schedule: Q01DX005 (ip), vehicle: saline 105 % of control | dose: 200.0 mg/kg/injection, schedule: Q01DX005 (ip), vehicle: saline 104 % of control

CCn1cnc2c(SC3CCCC3)ncnc21
inactive: dose: 15.0 mg/kg/injection, schedule: Q01DX015 (ip), vehicle: carboxymethylcellulose (CMC) 96 % of control | dose: 30.0 mg/kg/injection, schedule: Q01DX015 (ip), vehicle: carboxymethylcellulose (CMC) 104 % of control | dose: 62.0 mg/kg/injection, schedule: Q01DX015 (ip), vehicle: carboxymethylcellulose (CMC) 110 % of control | dose: 62.0 mg/kg/injection, schedule: Q01DX Z (ip), vehicle: carboxymethylcellulose (CMC) 95 % of control | dose: 125.0 mg/kg/injection, schedule: Q01DX015 (ip), vehicle: carboxymethylcellulose (CMC) 124 % of control | dose: 125.0 mg/kg/injection, schedule: Q01DX Z (ip), vehicle: carboxymethylcellulose (CMC) 113 % of control | dose: 500.0 mg/kg/injection, schedule: Q01DX Z (ip), vehicle: carboxymethylcellulose (CMC) 101 % of control

O=C(OCc1ccccc1CN1CCCCC1)c1ccc(Br)cc1
inactive: dose: 25.0 mg/kg/injection, schedule: Q04DX002 (ip), vehicle: Klucel (hydroxypropylcellulose) (HPC) 115 % of control | dose: 50.0 mg/kg/injection, schedule: Q04DX002 (ip), vehicle: Klucel (hydroxypropylcellulose) (HPC) 109 % of control | [4] 105 % of control

OCCCCCCCCCCC[n+]1ccccc1Cc1ccccc1
inactive: dose: 75.0 mg/kg/injection, schedule: Q01DX001 (ip), vehicle: Klucel (hydroxypropylcellulose) (HPC) 92 % of control

O=c1ccn(Cc2ccccc2)cn1
inactive: [11] 106 % of control | [12] 104 % of control | dose: 400.0 mg/kg/injection, schedule: Q04DX003 (ip), vehicle: saline 98 % of control

N=C(N)Sc1cccc[n+]1[O-]
inactive: [14] 105 % of control | [15] 111 % of control

CC(O)COC(C)C (configuration not stated)
inactive: [14] 98 % of control | [15] 89 % of control | [16] 96 % of control

Nc1ccc(CCc2nc(N)[nH]c(=O)c2CCCCc2ccccc2)cc1
inactive: dose: 25.0 mg/kg/injection, schedule: Q01DX001 (ip), vehicle: Klucel (hydroxypropylcellulose) (HPC) 98 % of control | dose: 50.0 mg/kg/injection, schedule: Q01DX001 (ip), vehicle: Klucel (hydroxypropylcellulose) (HPC) 96 % of control | dose: 100.0 mg/kg/injection, schedule: Q01DX001 (ip), vehicle: Klucel (hydroxypropylcellulose) (HPC) 88 % of control

O=C(Nc1ccc(F)cc1)C(Cl)(Cl)Cl
inactive: [4] 102 % of control | [5] 94 % of control | [6] 94 % of control

O=S(=O)(Cc1ccccc1)C(Cl)(Cl)c1ccccc1
inactive: [14] 91 % of control | [2] 96 % of control | [8] 110 % of control | [15] 107 % of control | [3] 102 % of control | dose: 200.0 mg/kg/injection, schedule: Q04DX003 (ip), vehicle: Klucel (hydroxypropylcellulose) (HPC) 104 % of control | [16] 105 % of control | dose: 400.0 mg/kg/injection, schedule: Q01DX009 (ip), vehicle: Klucel (hydroxypropylcellulose) (HPC) 95 % of control | dose: 400.0 mg/kg/injection, schedule: Q04DX003 (ip), vehicle: Klucel (hydroxypropylcellulose) (HPC) 103 % of control

COC(=O)C1=COC(C)C(C=O)C1CC(=O)O (configuration not stated)
inactive: dose: 12.5 mg/kg/injection, schedule: Q01DX009 (ip), vehicle: saline 108 % of control | dose: 20.0 mg/kg/injection, schedule: Q01DX001 (ip), vehicle: saline 103 % of control | dose: 25.0 mg/kg/injection, schedule: Q01DX009 (ip), vehicle: saline 103 % of control | [13] 110 % of control | dose: 40.0 mg/kg/injection, schedule: Q01DX001 (ip), vehicle: saline 118 % of control | dose: 50.0 mg/kg/injection, schedule: Q04DX003 (ip), vehicle: saline 111 % of control | dose: 80.0 mg/kg/injection, schedule: Q01DX001 (ip), vehicle: saline 118 % of control

O=[N+]([O-])c1ccc(Cn2cnc3c(Cl)ncnc32)cc1
inactive: dose: 100.0 mg/kg/injection, schedule: Q01DX001 (ip), vehicle: other 90 % of control

O=NN(CC(=O)O)c1cccnc1
inactive: [7] 98 % of control | [1] 101 % of control | [2] 107 % of control

CCOC(=O)CSC#N
inactive: [14] 101 % of control | [4] 95 % of control | [15] 101 % of control | [5] 91 % of control | [16] 95 % of control | [6] 107 % of control
